The text below walks through data of paper PMC10464554 (Journal of Enzyme Inhibition and Medicinal Chemistry, 2023).

One data set deals with Vero E6 cells. To be noted: 200–0.1 µM, 24 h, MTT.
For the next data set, the system named is SARS-CoV-2 BA.5 strain. Format: cell-based.
Data set [1] relates to SARS-CoV-2. Particulars: Vero E6 cells, 72 h readout; cited from earlier work.
Data set [2] relates to Nsp5. Particulars: irreversible inhibitor of Nsp5; cited from earlier work.
Data set [3] deals with SARS-CoV-2. To be noted: replication of SARS-CoV-2 in Vero E6 cells; cited from earlier work.
The target of data set [4] is Nsp5. To be noted: cited from earlier work.
The target of data set [5] is NT650-Nps5 (recombinant SARS-CoV-2 main protease Nsp5) (Severe acute respiratory syndrome coronavirus 2, UniProt P0DTD1). The data set can be described thus: biochemical. Format: binding.

Each structure is given as a SMILES string.

With `CC(C)(C)[C@H](NC(=O)C(F)(F)F)C(=O)N1C[C@H]2[C@@H]([C@H]1C(=O)N[C@H](C#N)C[C@@H]1CCNC1=O)C2(C)C` [Nirmatrelvir (1), Nirmatrelvir], the “Cell viability (cytotoxic effect)” value in the data set with Vero E6 cells is on record as “well-tolerated by Vero E6 cells at all the concentrations tested”. Further, the “Viral replication (supernatant viral titre)” value with SARS-CoV-2 BA.5 strain was “significantly reduce the number of infective particles”.

As to `O=c1c(O)c(-c2cc(O)c(O)c(O)c2)oc2cc(O)cc(O)c12` [Myricetin (2), myricetin], in the data set with SARS-CoV-2 [1], the “Antiviral SARS-CoV-2 activity (CPE inhibition)” value is reported as “devoid of antiviral SARS-CoV-2 activity”. The IC50 in the data set with Nsp5 [2] is 0.63 ± 0.01 µM. Also, the EC50 with SARS-CoV-2 [3] is 8 µM.

Consider `O=c1oc2c(O)c(O)cc3c(=O)oc4c(O)c(O)cc1c4c23` [Ellagic acid (7), ellagic acid], for which the “Dissociation constant (SPR)” value at Nsp5 [4] is given as “low micromolar”. For the same compound, the Kd in data set [5] worked out at 0.97 ± 0.14 µM. In addition, the “Binding Efficiency Index (BEI)” value in data set [5] (BEI = pKd/MW (kDa)) came out at 19.9.

As a reminder, the IC50 is the concentration at which inhibition is half-maximal. As usually defined, the EC50 is the concentration that produces a half-maximal response. Broadly, the Kd is a measure of binding affinity in units of concentration.
